Assay results published in patent US20260285716A1, “METHODS TO REDUCE CONTAMINATION, BIOFILM, AND FOULING FROM WATER SYSTEMS AND SURFACES” (Aequor Inc., priority 2022, published 2026).

Tested on: Pseudomonas aeruginosa
Type: cell-based

**Q.** Which “MBEC (removal of 48-hr biofilm)” value does the source give for butyl acid phosphate [BAP] here?
**A.** The value was no more than 47 ppm.
